Reference: patent publication US10988477B2 (Merck Patent GmbH, priority 2018, dated 2021)
pIC50, pKi: −log10 of the molar value.

Key:
[1] = biological target: intracellular GCN2 (phosphorylation of the GCN2 substrate eIF2α) (Homo sapiens, UniProt Q9P2K8); experiment: GCN2 cellular inhibition assay (AlphaScreen SureFire P-eIF2α Ser51, borrelidin-treated U2OS cells); format: cell-based; details: compounds of Formula II; biomarker assay, phosphorylated eIF2α Ser51 in borrelidin-treated U2OS cells
Summary of the method: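 First, U2OS cells are plated and left overnight at 37 °C. Next, compounds (from 40 μM final, 4-fold steps) and 10 μM borrelidin are added for 1 h, cells lysed, and phospho-Ser51 eIF2α detected by AlphaScreen bead sandwich. Inhibition is computed versus borrelidin-only wells.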

GCN2 kinase = GCN2 kinase (Homo sapiens, UniProt Q9P2K8); experiment: GCN2 enzyme inhibition assay (Transcreener ADP2 fluorescence polarization); format: biochemical; details: compounds of Formula II; 280 μM ATP, 4 nM GCN2 kinase
Sequence of GCN2 kinase (Q9P2K8 whole entry): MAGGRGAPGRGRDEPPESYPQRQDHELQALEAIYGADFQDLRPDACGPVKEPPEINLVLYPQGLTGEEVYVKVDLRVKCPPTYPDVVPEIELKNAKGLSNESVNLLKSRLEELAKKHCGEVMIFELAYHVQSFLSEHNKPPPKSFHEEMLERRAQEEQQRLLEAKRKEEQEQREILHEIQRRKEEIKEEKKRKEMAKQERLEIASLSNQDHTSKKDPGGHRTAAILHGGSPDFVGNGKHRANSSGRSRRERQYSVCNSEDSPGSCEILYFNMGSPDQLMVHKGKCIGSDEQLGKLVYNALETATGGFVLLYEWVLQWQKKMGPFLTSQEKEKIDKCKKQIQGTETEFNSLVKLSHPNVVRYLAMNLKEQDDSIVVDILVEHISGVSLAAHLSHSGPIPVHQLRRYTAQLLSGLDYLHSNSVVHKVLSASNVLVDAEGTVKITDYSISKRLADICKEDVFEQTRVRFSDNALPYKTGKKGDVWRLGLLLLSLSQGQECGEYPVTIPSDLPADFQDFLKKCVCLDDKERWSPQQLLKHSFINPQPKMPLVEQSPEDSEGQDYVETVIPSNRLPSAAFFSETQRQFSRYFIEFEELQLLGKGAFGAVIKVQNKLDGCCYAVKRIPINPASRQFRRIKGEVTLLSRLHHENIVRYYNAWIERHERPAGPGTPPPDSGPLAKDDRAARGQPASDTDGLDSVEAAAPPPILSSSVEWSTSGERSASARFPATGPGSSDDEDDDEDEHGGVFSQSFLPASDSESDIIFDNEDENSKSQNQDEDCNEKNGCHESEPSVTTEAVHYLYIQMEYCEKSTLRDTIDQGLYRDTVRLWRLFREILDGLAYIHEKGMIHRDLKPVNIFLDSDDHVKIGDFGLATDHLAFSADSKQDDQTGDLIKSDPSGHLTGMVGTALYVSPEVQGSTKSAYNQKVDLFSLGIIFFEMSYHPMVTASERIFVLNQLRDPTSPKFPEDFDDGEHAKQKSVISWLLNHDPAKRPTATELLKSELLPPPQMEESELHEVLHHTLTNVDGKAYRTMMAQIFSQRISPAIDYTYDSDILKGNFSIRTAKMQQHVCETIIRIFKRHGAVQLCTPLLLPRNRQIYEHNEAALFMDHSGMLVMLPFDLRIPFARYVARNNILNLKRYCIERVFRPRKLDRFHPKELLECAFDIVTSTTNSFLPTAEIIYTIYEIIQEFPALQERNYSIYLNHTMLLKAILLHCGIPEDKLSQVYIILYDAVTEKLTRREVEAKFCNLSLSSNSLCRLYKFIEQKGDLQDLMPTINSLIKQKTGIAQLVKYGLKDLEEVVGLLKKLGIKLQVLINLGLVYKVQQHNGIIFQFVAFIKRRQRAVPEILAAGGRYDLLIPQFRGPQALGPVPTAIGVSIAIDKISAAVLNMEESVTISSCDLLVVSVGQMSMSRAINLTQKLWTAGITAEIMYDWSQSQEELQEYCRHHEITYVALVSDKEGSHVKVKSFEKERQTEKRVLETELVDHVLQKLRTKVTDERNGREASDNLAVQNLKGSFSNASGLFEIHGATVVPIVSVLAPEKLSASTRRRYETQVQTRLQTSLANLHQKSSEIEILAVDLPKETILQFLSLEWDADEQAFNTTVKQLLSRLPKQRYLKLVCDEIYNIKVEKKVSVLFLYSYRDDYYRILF
Summary of the method: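 Run at 25 °C in 25 mM Tris-HCl pH 7.5, 50 mM NaCl, 10 mM MgCl2, 1 mM DTT with 4 nM GCN2, 280 μM ATP and 200 μM (RS)7 peptide; compound (0–8 μM final) preincubated 10 min, reaction 1 h. ADP read by antibody/tracer FP; IC50 and Ki(app) from tight-binding fit.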

Sequence of intracellular GCN2 (phosphorylation of the GCN2 substrate eIF2α) (Q9P2K8 whole entry): as above

Compound | pIC50 [1] | pKi (GCN2 kinase)
CC1C(CNS(C)(=O)=O)N(C)CCN1c1cc(-c2cnc3ccc(C(F)F)nn23)ncn1 (single isomer, unassigned) [II-364, N-((4-(6-(6-(difluoromethyl)imidazo[1,2-b]pyridazin-3-yl)pyrimidin-4-yl)-1,3-dimethylpiperazin-2-yl)methyl)methanesulfonamide] | > 6.30 | > 8.00
CC1C(CNS(C)(=O)=O)OCCN1c1cc(-c2cnc3ccc(C(F)F)nn23)ncn1 (single isomer, unassigned) [II-372, N-((4-(6-(6-(Difluoromethyl)imidazo[1,2-b]pyridazin-3-yl)pyrimidin-4-yl)-3-methylmorpholin-2-yl)methyl)methanesulfonamide] | < 5.30 | < 6.00
CC1C(NS(C)(=O)=O)CCCN1c1cc(-c2cnc3ccc(C(F)F)nn23)ncn1 (single isomer, unassigned) [II-374, N-[1-[6-[6-(Difluoromethyl)imidazo[1,2-b]pyridazin-3-yl]pyrimidin-4-yl]-2-methyl-3-piperidyl]methanesulfonamide] | 5.30 to 6.30 | 6.00 to 8.00
CC1C(NS(C)(=O)=O)CCCN1c1cc(-c2cnc3ccc(C(F)F)nn23)ncn1 (single isomer, unassigned) [II-377, N-[1-[6-[6-(Difluoromethyl)imidazo[1,2-b]pyridazin-3-yl]pyrimidin-4-yl]-2-methyl-3-piperidyl]methanesulfonamide] | > 6.30 | 6.00 to 8.00
CC1(F)CCN(c2cc(-c3cnc4ccc(C(F)F)nn34)ncn2)CC1CNS(C)(=O)=O (single isomer, unassigned) [II-388, N-((1-(6-(6-(Difluoromethyl)imidazo[1,2-b]pyridazin-3-yl)pyrimidin-4-yl)-4-fluoro-4-methylpiperidin-3-yl)methyl)methanesulfonamide] | 5.30 to 6.30 | 6.00 to 8.00
CC1(F)CCN(c2cc(-c3cnc4ccc(C(F)F)nn34)ncn2)CC1CNS(C)(=O)=O (single isomer, unassigned) [II-389, N-((1-(6-(6-(Difluoromethyl)imidazo[1,2-b]pyridazin-3-yl)pyrimidin-4-yl)-4-fluoro-4-methylpiperidin-3-yl)methyl)methanesulfonamide] | 5.30 to 6.30 | 6.00 to 8.00
C[C@H]1[C@@H](CO)CCCN1c1cc(-c2cnc3ccc(C(F)F)nn23)ncn1 (single isomer, unassigned) [II-392] | 5.30 to 6.30 | 6.00 to 8.00
CC1C(CO)CCCN1c1cc(-c2cnc3ccc(C(F)F)nn23)ncn1 (single isomer, unassigned) [II-393, (1-(6-(6-(Difluoromethyl)imidazo[1,2-b]pyridazin-3-yl)pyrimidin-4-yl)-2-methylpiperidin-3-yl)methanol] | < 5.30 | 6.00 to 8.00
CS(=O)(=O)N[C@H]1CCCN(c2cc(-c3cnc4ccc(C(F)F)nn34)ncn2)C1 (single isomer, unassigned) [II-404] | 5.30 to 6.30 | 6.00 to 8.00
CS(=O)(=O)N[C@@H]1CCCN(c2cc(-c3cnc4ccc(C(F)F)nn34)ncn2)C1 (single isomer, unassigned) [II-405] | 5.30 to 6.30 | 6.00 to 8.00
CC1C(CO)OCCN1c1cc(-c2cnc3ccc(C(F)F)nn23)ncn1 (single isomer, unassigned) [II-413, (4-(6-(6-(Difluoromethyl)imidazo[1,2-b]pyridazin-3-yl)pyrimidin-4-yl)-3-methylmorpholin-2-yl)methanol] | < 5.30 | < 6.00
CC1C(CO)OCCN1c1cc(-c2cnc3ccc(C(F)F)nn23)ncn1 (single isomer, unassigned) [II-414, (4-(6-(6-(Difluoromethyl)imidazo[1,2-b]pyridazin-3-yl)pyrimidin-4-yl)-3-methylmorpholin-2-yl)methanol] | < 5.30 | 6.00 to 8.00
CCC1C(CNS(C)(=O)=O)CCCN1c1cc(-c2cnc3ccc(C(F)F)nn23)ncn1 (single isomer, unassigned) [II-416] | > 6.30 | > 8.00
CCC1C(CNS(C)(=O)=O)CCCN1c1cc(-c2cnc3ccc(C(F)F)nn23)ncn1 (single isomer, unassigned) [II-417] | 5.30 to 6.30 | 6.00 to 8.00

Next, values leading:

pIC50 [1] | pKi (GCN2 kinase) | Compound
5.30 to 6.30 | 6.00 to 8.00 | CC1CC(CNS(C)(=O)=O)CN(c2cc(-c3cnc4ccc(C(F)F)nn34)ncn2)C1 (single isomer, unassigned) [II-436, N-((1-(6-(6-(Difluoromethyl)imidazo[1,2-b]pyridazin-3-yl)pyrimidin-4-yl)-5-methylpiperidin-3-yl)methyl)methanesulfonamide]
> 6.30 | > 8.00 | CC1CC(CNS(C)(=O)=O)CN(c2cc(-c3cnc4ccc(C(F)F)nn34)ncn2)C1 (single isomer, unassigned) [II-437, N-((1-(6-(6-(Difluoromethyl)imidazo[1,2-b]pyridazin-3-yl)pyrimidin-4-yl)-5-methylpiperidin-3-yl)methyl)methanesulfonamide]
5.30 to 6.30 | 6.00 to 8.00 | CC1C(CNS(C)(=O)=O)C(F)(F)C(C)CN1c1cc(-c2cnc3ccc(C(F)F)nn23)ncn1 (single isomer, unassigned) [II-469, N-((1-(6-(6-(Difluoromethyl)imidazo[1,2-b]pyridazin-3-yl)pyrimidin-4-yl)-4,4-difluoro-2,5-dimethylpiperidin-3-yl)methyl)methanesulfonamide]
5.30 to 6.30 | 6.00 to 8.00 | CC1C(CNS(C)(=O)=O)C(F)(F)C(C)CN1c1cc(-c2cnc3ccc(C(F)F)nn23)ncn1 (single isomer, unassigned) [II-470, N-((1-(6-(6-(Difluoromethyl)imidazo[1,2-b]pyridazin-3-yl)pyrimidin-4-yl)-4,4-difluoro-2,5-dimethylpiperidin-3-yl)methyl)methanesulfonamide]
< 5.30 | 6.00 to 8.00 | CC1C(CNS(C)(=O)=O)C(F)(F)C(C)CN1c1cc(-c2cnc3ccc(C(F)F)nn23)ncn1 (single isomer, unassigned) [II-471, N-((1-(6-(6-(Difluoromethyl)imidazo[1,2-b]pyridazin-3-yl)pyrimidin-4-yl)-4,4-difluoro-2,5-dimethylpiperidin-3-yl)methyl)methanesulfonamide]
> 6.30 | > 8.00 | C[C@H]1[C@@H](CNS(C)(=O)=O)C(F)(F)[C@@H](C)CN1c1cc(-c2cnc3ccc(C(F)F)nn23)ncn1 (single isomer, unassigned) [II-472]
5.30 to 6.30 | 6.00 to 8.00 | CC1C(CNS(C)(=O)=O)N(C2CC2)CCN1c1cc(-c2cnc3ccc(C(F)F)nn23)ncn1 (single isomer, unassigned) [II-478, N-((1-Cyclopropyl-4-(6-(6-(difluoromethyl)imidazo[1,2-b]pyridazin-3-yl)pyrimidin-4-yl)-3-methylpiperazin-2-yl)methyl)methanesulfonamide]
> 6.30 | > 8.00 | CC1C(CNS(C)(=O)=O)N(C2CC2)CCN1c1cc(-c2cnc3ccc(C(F)F)nn23)ncn1 (single isomer, unassigned) [II-479, N-((1-Cyclopropyl-4-(6-(6-(difluoromethyl)imidazo[1,2-b]pyridazin-3-yl)pyrimidin-4-yl)-3-methylpiperazin-2-yl)methyl)methanesulfonamide]
5.30 to 6.30 | 6.00 to 8.00 | CC1C(CNS(C)(=O)=O)OC(C)(C)CN1c1cc(-c2cnc3ccc(C(F)F)nn23)ncn1 (single isomer, unassigned) [II-484, N-((4-(6-(6-(Difluoromethyl)imidazo[1,2-b]pyridazin-3-yl)pyrimidin-4-yl)-3,6,6-trimethylmorpholin-2-yl)methyl)methanesulfonamide]
< 5.30 | < 6.00 | CC1C(CNS(C)(=O)=O)OC(C)(C)CN1c1cc(-c2cnc3ccc(C(F)F)nn23)ncn1 (single isomer, unassigned) [II-489, N-((4-(6-(6-(Difluoromethyl)imidazo[1,2-b]pyridazin-3-yl)pyrimidin-4-yl)-3,6,6-trimethylmorpholin-2-yl)methyl)methanesulfonamide]
> 6.30 | > 8.00 | C[C@H]1[C@@H](CNS(C)(=O)=O)OC(C)(C)CN1c1cc(-c2cnc3ccc(C(F)F)nn23)ncn1 (single isomer, unassigned) [II-490]
> 6.30 | 6.00 to 8.00 | CS(C)(=O)=N[C@H]1CCCN(c2cc(-c3cnc4ccc(C(F)F)nn34)ncn2)C1 (single isomer, unassigned) [II-502]
5.30 to 6.30 | 6.00 to 8.00 | CS(C)(=O)=NC1CCCN(c2cc(-c3cnc4ccc(C(F)F)nn34)ncn2)C1 (single isomer, unassigned) [II-503, ((1-(6-(6-(Difluoromethyl)imidazo[1,2-b]pyridazin-3-yl)pyrimidin-4-yl)piperidin-3-yl)imino)dimethyl-λ^6-sulfanone]
> 6.30 | > 8.00 | C[C@H](NS(C)(=O)=O)[C@@H]1CN(c2cc(-c3cnc4ccc(C(F)F)nn34)ncn2)CCO1 (single isomer, unassigned) [II-509]
5.30 to 6.30 | 6.00 to 8.00 | CC(NS(C)(=O)=O)[C@@H]1CN(c2cc(-c3cnc4ccc(C(F)F)nn34)ncn2)CCO1 (single isomer, unassigned) [II-510]
5.30 to 6.30 | 6.00 to 8.00 | CS(=O)(=O)C1CCCN(c2cc(-c3cnc4ccc(C(F)F)nn34)ncn2)C1 (single isomer, unassigned) [II-529, 6-(Difluoromethyl)-3-(6-(3-(methylsulfonyl)piperidin-1-yl)pyrimidin-4-yl)imidazo[1,2-b]pyridazine]
